Read-outs that look alike come from different tables or passages of the source.
What was measured:
[1] = test system: bone marrow hematopoietic stem & progenitor cells (HSPC); assay: In vivo induction of trained immunity: flow cytometry of mouse bone marrow HSPC populations; conditions: 0.050% w/w in chow, 4 weeks
[2] = target: T1, Dectin-1b (Homo sapiens, UniProt Q9BXN2); assay: hDectin1b-HEK293 NFκB-SEAP reporter cell assay (QuantiBlue); type: cell-based; conditions: for NFκB-linked SEAP activity (Dectin-1b activation): β-glucans 1, 10 & 100 μg/mL, 6 h, relative to untreated cells; for blocking of BGP- or dWGP-driven NFκB-SEAP activation: pre-incubation 1 h before BGP or dWGP 100 μg/mL
T1 construct: host or cells: HEK293 (HEK-Blue) NFκB-SEAP reporter cells
T1 sequence (Q9BXN2 1-201 isoform Q9BXN2-2): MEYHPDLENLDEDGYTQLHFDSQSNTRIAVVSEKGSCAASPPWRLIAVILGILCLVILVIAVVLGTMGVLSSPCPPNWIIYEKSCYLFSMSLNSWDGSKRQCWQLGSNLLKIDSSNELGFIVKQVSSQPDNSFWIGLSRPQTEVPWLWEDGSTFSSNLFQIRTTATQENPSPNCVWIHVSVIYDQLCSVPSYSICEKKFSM
Method: SEAP activity in supernatants was measured 6 h post-stimulation and quantified relative to untreated cells (−).
hDectin1b-HEK293 NFκB-SEAP reporter cells were obtained from Invivogen and were cultured according to manufacturer's instructions. Puromycin and HEK-Blue™ CLR Selection (Invivogen) were used as selective antibiotics and cells were cultured using DMEM (4.5 g/L glucose), 10% (v/v) fetal bovine serum (FBS), 100 U/ml penicillin, 100 μg/ml streptomycin, 100 μg/ml Normocin and 2 mM L-glutamine.
hDectin1b-HEK293 NFκB-SEAP reporter cells (Invivogen) were cultured according to manufacturer's instructions. Reporter cell assays were carried out by seeding at 50,000 cells per well in 180 μL in a 96 well flat-bottomed plate and incubating the cells with 20 μL of the indicated agonists overnight. SEAP activity was measured using QUANTI-Blue (Invivogen) according to the manufacturer's instructions. Briefly, 20 μL of supernatant was added to 180 μL of QUANTI-Blue solution and incubated at 37° C. for 15 minutes. Optical density at 620 nm was then measured using a plate reader.

[3] = test system: human monocytes / monocyte-derived macrophages (hMDM); assay: Human monocyte training assay: cytokine ELISA after restimulation of monocyte-derived macrophages; type: cell-based
[4] = test system: mTOR (phospho-S6 ribosomal protein); assay: Intracellular phospho-S6 staining by flow cytometry (mTOR activity); type: cell-based, human; conditions: 15 min pre-treatment, dWGP 10 μg/mL 2 h
Method: To analyse phospho-S6 ribosomal protein activity after β-glucan treatment, PBMCs were isolated as above and resuspended in RPMI-1640 media supplemented with 10% human AB serum (Sigma-Aldrich) at 2×10^6/mL. Cells were first incubated with metabolic inhibitors for 15 min as indicated above. […] After the incubation time, cells were resuspended by vortexing quickly, washed in flow buffer; [PBS-1× (Gibco) supplemented with 5% heat inactivated FBS (Gibco) and 0.1% Sodium azide (Sigma)] and the following flow cytometry staining protocol was applied to all samples with up to 100,000 cells per sample. Cells were stained with fixable viability stain ZombieAqua™ (Biolegend) at the concentration of 1:500 for 15 minutes. Subsequently, samples were washed with flow buffer and incubated with anti-Dectin-1-PE (clone 15E2, Biolegend) antibody for Dectin-1 surface staining, then washed and fixed 20 minutes with IC Fixation Buffer (Invitrogen). […] All cells were subsequently washed with flow buffer and resuspended 20 minutes with IC Fixation Buffer (Invitrogen) for fixation. Cells were then washed with flow buffer, incubated at 4° C. for 30 minutes with Perm/Wash Buffer (BD Biosciences) containing anti-phospho-S6-PE (Ser235/236) (cloneD57.2.2E, Cell Signaling) at 1:200 for intracellular pS6 staining, and finally washed again with flow buffer. Compensation controls were obtained after staining UltraComp eBeads™ Compensation Beads (Invitrogen) with the appropriate antibodies. Cells were acquired on the BD flow cytometer Canto II with FACSDiva software. Data analysis and flow charts were performed using FlowJo software v.7.6 (TreeStar).

[5] = target: T2, Dectin-1 (Homo sapiens, UniProt Q9BXN2); assay: Surface Dectin-1 expression on monocytes by flow cytometry; type: cell-based; conditions: CytD 10 μM 1 h before dWGP 100 μg/mL 15 min
T2 construct: incubated with anti-Dectin-1-PE (clone 15E2, Biolegend) antibody for Dectin-1 surface staining; endogenous in cells; host or cells: primary human monocytes (PBMC from buffy coats)
T2 sequence (Q9BXN2 1-247): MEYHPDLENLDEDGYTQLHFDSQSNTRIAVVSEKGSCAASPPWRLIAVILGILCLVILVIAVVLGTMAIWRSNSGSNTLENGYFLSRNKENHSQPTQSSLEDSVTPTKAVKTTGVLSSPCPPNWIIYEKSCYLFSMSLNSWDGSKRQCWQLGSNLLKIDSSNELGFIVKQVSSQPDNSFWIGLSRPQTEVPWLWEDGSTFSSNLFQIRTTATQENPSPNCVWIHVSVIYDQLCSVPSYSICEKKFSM
Method: To analyse phospho-S6 ribosomal protein activity after β-glucan treatment, PBMCs were isolated as above and resuspended in RPMI-1640 media supplemented with 10% human AB serum (Sigma-Aldrich) at 2×10^6/mL. Cells were first incubated with metabolic inhibitors for 15 min as indicated above. […] After the incubation time, cells were resuspended by vortexing quickly, washed in flow buffer; [PBS-1× (Gibco) supplemented with 5% heat inactivated FBS (Gibco) and 0.1% Sodium azide (Sigma)] and the following flow cytometry staining protocol was applied to all samples with up to 100,000 cells per sample. Cells were stained with fixable viability stain ZombieAqua™ (Biolegend) at the concentration of 1:500 for 15 minutes. Subsequently, samples were washed with flow buffer and incubated with anti-Dectin-1-PE (clone 15E2, Biolegend) antibody for Dectin-1 surface staining, then washed and fixed 20 minutes with IC Fixation Buffer (Invitrogen). Alternatively, cells were incubated with anti-CD14-APC (clone M5E2, Biolegend), anti-CD16-PE-Cy7 (clone 3G8, Biolegend), anti-HLA-DR-BB515 (clone G46-6, BD Bioscience) at a concentration of 1:100 in flow buffer for 30 minutes at 4° C. All cells were subsequently washed with flow buffer and resuspended 20 minutes with IC Fixation Buffer (Invitrogen) for fixation. […]

[6] = test system: human monocytes; assay: TNF production by monocytes 24 h post-training (monocyte activation); type: cell-based; conditions: TNF 24 h after dWGP

## inulin
[1]
  trained immunity-like effects (bone marrow progenitors, BMDM cytokines): behaving similarly to control chow-fed mice

## Pustulan
[2]
  NFκB-linked SEAP activity (Dectin-1b activation): drive NFκB signaling in a dose-dependent fashion

## C=C1[C@@H](C)[C@H]2[C@H](Cc3ccccc3)NC(=O)[C@]23[C@H](OC(C)=O)/C=C/[C@@](C)(O)C(=O)[C@@H](C)C/C=C/[C@H]3[C@@H]1O [cytD, cytochalasin-D]
[3]
  effect of inhibitor pre-treatment on β-glucan training (TNF after LPS restimulation): preferentially blocked the training effect
[4]
  effect of inhibitor pre-treatment on dWGP-driven p-S6 / mTOR activation: blocked monocyte mTOR activation driven by dWGP
[5]
  effect of inhibitor on dWGP-induced loss of surface Dectin-1: blunts this effect

## Curdlan
[2]
  NFκB-linked SEAP activity (Dectin-1b activation): drive NFκB signaling in a dose-dependent fashion
[3]; monocytes exposed 24 h, matured 5 days, LPS 10 ng/ml 6 h, vs untrained
  TNF production upon LPS restimulation (training): A trend toward some training was observed

## laminarin
[2]
  blocking of BGP- or dWGP-driven NFκB-SEAP activation: block Dectin-1b mediated NFκB activation
[3]
  effect of inhibitor pre-treatment on β-glucan training (TNF after LPS restimulation): more effective at all doses tested

## Oc1cc(O)cc(/C=C/c2ccc(O)c(O)c2)c1 [PIC, picethanol]
[2]
  blocking of BGP- or dWGP-driven NFκB-SEAP activation: blocking NFκB activation driven by dWGP and BGP
[3]
  effect of inhibitor pre-treatment on β-glucan training (TNF after LPS restimulation): suppressed monocyte training driven by both BGP and dWGP
[6]
  effect of inhibitor pre-treatment on early monocyte TNF production driven by dWGP: block traditional pro-inflammatory signaling and monocyte TNF production
[4]
  effect of inhibitor pre-treatment on dWGP-driven p-S6 / mTOR activation: did not affect mTOR up-regulation

## O=CC[C@@H](O)[C@H](O)[C@H](O)CO [2DG, 2-deoxyglucose]
[3]
  effect of inhibitor pre-treatment on β-glucan training (TNF after LPS restimulation): abolished the ability of dWGP to increase LPS-restimulation responses

## Cc1ccc(S(=O)(=O)/C=C/C#N)cc1 [BAY 11-7082]
[3]; inhibitor added to monocytes prior to training with dWGP and/or BGP, LPS 10 ng/ml 6 h
  effect of inhibitor pre-treatment on β-glucan training (TNF after LPS restimulation): abolishment of LPS-restimulation driven TNF production in trained macrophages
[6]
  effect of inhibitor pre-treatment on early monocyte TNF production driven by dWGP: enhanced early TNF production

## CO/C1=C\C(C)=C\[C@@H](C)[C@@H](O)[C@@H](C)C/C(C)=C/C=C/[C@H](OC)[C@@H]([C@@H](C)[C@@H](O)[C@H](C)[C@@]2(O)C[C@@H](O)[C@H](C)[C@@H](C(C)C)O2)OC1=O [bafilomycin A1]
[4]
  effect of inhibitor pre-treatment on dWGP-driven p-S6 / mTOR activation: profound decrease in monocyte mTOR activation by dWGP

Reference: patent US20260240895A1, “BETA-GLUCAN PARTICLES FOR TRAINED IMMUNITY” (THE PROVOST, FELLOWS, FOUNDATION SCHOLARS, AND THE OTHER …, priority 2022, published 2026)
